Results published in the CheMixHub viscosity set.
± gives the uncertainty stated by the source.

Experiment: xn = mol fraction of the nth substance listed

NCCCC[C@H](N)C(=O)O + O
viscosity [mPa·s], 101 kPa
Details	293.15 K	298.15 K	303.15 K	308.15 K	313.15 K
x1 = 0.006	1.261 ± 0.12	1.129 ± 0.12	1.016 ± 0.12	0.9447 ± 0.12	0.8984 ± 0.12
x1 = 0.014	1.324 ± 0.12	1.194 ± 0.12	1.079 ± 0.12	1.013 ± 0.12	0.9598 ± 0.12

CS(C)=O + C1CCOC1
298.15 K, 101 kPa
Details	viscosity [mPa·s]
x2 = 0.27	1.523 ± 0.013
x2 = 0.52	1.112 ± 0.01
x2 = 0.76	0.7376 ± 0.0083

CCCCCCCO + COC(=O)OC
Details	viscosity [mPa·s]
293.15 K, 101 kPa, x2 = 0.04189	6.005
293.15 K, 101 kPa, x2 = 0.08197	5.163
293.15 K, 101 kPa, x2 = 0.1998	3.52
293.15 K, 101 kPa, x2 = 0.2986	2.615
293.15 K, 101 kPa, x2 = 0.4163	1.928
293.15 K, 101 kPa, x2 = 0.482	1.64
293.15 K, 101 kPa, x2 = 0.6031	1.231
293.15 K, 101 kPa, x2 = 0.7204	0.956
293.15 K, 101 kPa, x2 = 0.7985	0.818
293.15 K, 101 kPa, x2 = 0.9076	0.691
293.15 K, 101 kPa, x2 = 0.9573	0.661
303.15 K, 100 kPa, x2 = 0.0999	3.588 ± 0.11
303.15 K, 100 kPa, x2 = 0.2	2.668 ± 0.082
303.15 K, 100 kPa, x2 = 0.3001	2.033 ± 0.062
303.15 K, 100 kPa, x2 = 0.4	1.59 ± 0.049
303.15 K, 100 kPa, x2 = 0.5001	1.275 ± 0.039
303.15 K, 100 kPa, x2 = 0.6	1.061 ± 0.033
303.15 K, 100 kPa, x2 = 0.7	0.869 ± 0.027
303.15 K, 100 kPa, x2 = 0.8	0.707 ± 0.022
303.15 K, 100 kPa, x2 = 0.8999	0.609 ± 0.019
303.15 K, 101 kPa, x2 = 0.06371	4.012
303.15 K, 101 kPa, x2 = 0.1014	3.549
303.15 K, 101 kPa, x2 = 0.2001	2.661
303.15 K, 101 kPa, x2 = 0.2928	2.07
303.15 K, 101 kPa, x2 = 0.4019	1.583
303.15 K, 101 kPa, x2 = 0.4949	1.282
303.15 K, 101 kPa, x2 = 0.5788	1.071
303.15 K, 101 kPa, x2 = 0.715	0.817
303.15 K, 101 kPa, x2 = 0.7902	0.719
303.15 K, 101 kPa, x2 = 0.9063	0.607
303.15 K, 101 kPa, x2 = 0.9354	0.584
308.15 K, 100 kPa, x2 = 0.0999	3.119 ± 0.096
308.15 K, 100 kPa, x2 = 0.2	2.351 ± 0.072
308.15 K, 100 kPa, x2 = 0.3001	1.809 ± 0.056
308.15 K, 100 kPa, x2 = 0.4	1.434 ± 0.044
308.15 K, 100 kPa, x2 = 0.5001	1.149 ± 0.035
308.15 K, 100 kPa, x2 = 0.6	0.964 ± 0.03
308.15 K, 100 kPa, x2 = 0.7	0.789 ± 0.024
308.15 K, 100 kPa, x2 = 0.8	0.66 ± 0.02
308.15 K, 100 kPa, x2 = 0.8999	0.57 ± 0.018
313.15 K, 100 kPa, x2 = 0.0999	2.725 ± 0.084
313.15 K, 100 kPa, x2 = 0.2	2.077 ± 0.064
313.15 K, 100 kPa, x2 = 0.3001	1.616 ± 0.05
313.15 K, 100 kPa, x2 = 0.4	1.288 ± 0.04
313.15 K, 100 kPa, x2 = 0.5001	1.049 ± 0.032
313.15 K, 100 kPa, x2 = 0.6	0.875 ± 0.027
313.15 K, 100 kPa, x2 = 0.7	0.73 ± 0.023
313.15 K, 100 kPa, x2 = 0.8	0.612 ± 0.019
313.15 K, 100 kPa, x2 = 0.8999	0.536 ± 0.017
313.15 K, 101 kPa, x2 = 0.04009	3.253
313.15 K, 101 kPa, x2 = 0.09588	2.743
313.15 K, 101 kPa, x2 = 0.2155	1.974
313.15 K, 101 kPa, x2 = 0.3104	1.571
313.15 K, 101 kPa, x2 = 0.4052	1.267
313.15 K, 101 kPa, x2 = 0.4938	1.054
313.15 K, 101 kPa, x2 = 0.5968	0.859
313.15 K, 101 kPa, x2 = 0.7024	0.709
313.15 K, 101 kPa, x2 = 0.7953	0.613
313.15 K, 101 kPa, x2 = 0.9018	0.535
313.15 K, 101 kPa, x2 = 0.9477	0.509
318.15 K, 100 kPa, x2 = 0.0999	2.392 ± 0.073
318.15 K, 100 kPa, x2 = 0.2	1.847 ± 0.057
318.15 K, 100 kPa, x2 = 0.3001	1.454 ± 0.045
318.15 K, 100 kPa, x2 = 0.4	1.171 ± 0.036
318.15 K, 100 kPa, x2 = 0.5001	0.961 ± 0.03
318.15 K, 100 kPa, x2 = 0.6	0.809 ± 0.025
318.15 K, 100 kPa, x2 = 0.7	0.683 ± 0.021
318.15 K, 100 kPa, x2 = 0.8	0.573 ± 0.018
318.15 K, 100 kPa, x2 = 0.8999	0.504 ± 0.016
323.15 K, 100 kPa, x2 = 0.0999	2.113 ± 0.065
323.15 K, 100 kPa, x2 = 0.2	1.651 ± 0.051
323.15 K, 100 kPa, x2 = 0.3001	1.31 ± 0.04
323.15 K, 100 kPa, x2 = 0.4	1.068 ± 0.033
323.15 K, 100 kPa, x2 = 0.5001	0.885 ± 0.027
323.15 K, 100 kPa, x2 = 0.6	0.738 ± 0.023
323.15 K, 100 kPa, x2 = 0.7	0.638 ± 0.02
323.15 K, 100 kPa, x2 = 0.8	0.539 ± 0.017
323.15 K, 100 kPa, x2 = 0.8999	0.476 ± 0.015

CCCCC + CCCCCCCCCCCC
Details	viscosity [mPa·s]
293.15 K, 100 kPa, x1 = 0.0988	1.33 ± 0.02
293.15 K, 100 kPa, x1 = 0.2004	1.153 ± 0.014
293.15 K, 100 kPa, x1 = 0.2963	0.995 ± 0.012
293.15 K, 100 kPa, x1 = 0.4022	0.847 ± 0.011
293.15 K, 100 kPa, x1 = 0.5005	0.686 ± 0.009
293.15 K, 100 kPa, x1 = 0.5989	0.581 ± 0.007
293.15 K, 100 kPa, x1 = 0.7029	0.468 ± 0.006
293.15 K, 100 kPa, x1 = 0.8	0.388 ± 0.005
293.15 K, 100 kPa, x1 = 0.9011	0.304 ± 0.004
298.15 K, 100 kPa, x1 = 0.0988	1.216 ± 0.015
298.15 K, 100 kPa, x1 = 0.2004	1.054 ± 0.013
298.15 K, 100 kPa, x1 = 0.2963	0.923 ± 0.011
298.15 K, 100 kPa, x1 = 0.4022	0.79 ± 0.01
298.15 K, 100 kPa, x1 = 0.5005	0.642 ± 0.008
298.15 K, 100 kPa, x1 = 0.5989	0.548 ± 0.007
298.15 K, 100 kPa, x1 = 0.7029	0.443 ± 0.006
298.15 K, 100 kPa, x1 = 0.8	0.369 ± 0.005
298.15 K, 100 kPa, x1 = 0.9011	0.289 ± 0.004
298.15 K, 101.33 kPa, x1 = 0.1094	1.194 ± 0.015
298.15 K, 101.33 kPa, x1 = 0.2073	1.037 ± 0.013
298.15 K, 101.33 kPa, x1 = 0.299	0.9143 ± 0.012
298.15 K, 101.33 kPa, x1 = 0.4078	0.7711 ± 0.01
298.15 K, 101.33 kPa, x1 = 0.5008	0.6622 ± 0.0091
298.15 K, 101.33 kPa, x1 = 0.6031	0.5504 ± 0.0078
298.15 K, 101.33 kPa, x1 = 0.7069	0.4481 ± 0.0067
298.15 K, 101.33 kPa, x1 = 0.8062	0.3631 ± 0.0057
298.15 K, 101.33 kPa, x1 = 0.8991	0.2925 ± 0.005
303.15 K, 100 kPa, x1 = 0.0988	1.119 ± 0.014
303.15 K, 100 kPa, x1 = 0.2004	0.975 ± 0.012
303.15 K, 100 kPa, x1 = 0.2963	0.857 ± 0.011
303.15 K, 100 kPa, x1 = 0.4022	0.738 ± 0.009
303.15 K, 100 kPa, x1 = 0.5005	0.603 ± 0.008
303.15 K, 100 kPa, x1 = 0.5989	0.516 ± 0.006
303.15 K, 100 kPa, x1 = 0.7029	0.42 ± 0.005
303.15 K, 100 kPa, x1 = 0.8	0.358 ± 0.005
303.15 K, 100 kPa, x1 = 0.9011	0.275 ± 0.004
308.15 K, 100 kPa, x1 = 0.0988	1.032 ± 0.013
308.15 K, 100 kPa, x1 = 0.2004	0.906 ± 0.011
308.15 K, 100 kPa, x1 = 0.2963	0.8 ± 0.01
308.15 K, 100 kPa, x1 = 0.4022	0.693 ± 0.009
308.15 K, 100 kPa, x1 = 0.5005	0.568 ± 0.007
308.15 K, 100 kPa, x1 = 0.5989	0.489 ± 0.006
308.15 K, 100 kPa, x1 = 0.7029	0.399 ± 0.005
308.15 K, 100 kPa, x1 = 0.8	0.34 ± 0.004
313.15 K, 100 kPa, x1 = 0.0988	0.957 ± 0.012
313.15 K, 100 kPa, x1 = 0.2004	0.843 ± 0.01
313.15 K, 100 kPa, x1 = 0.2963	0.748 ± 0.009
313.15 K, 100 kPa, x1 = 0.4022	0.65 ± 0.008
313.15 K, 100 kPa, x1 = 0.5005	0.536 ± 0.007
313.15 K, 100 kPa, x1 = 0.5989	0.463 ± 0.006
313.15 K, 100 kPa, x1 = 0.7029	0.38 ± 0.005
318.15 K, 100 kPa, x1 = 0.0988	0.89 ± 0.011
318.15 K, 100 kPa, x1 = 0.2004	0.789 ± 0.01
318.15 K, 100 kPa, x1 = 0.2963	0.702 ± 0.009
318.15 K, 100 kPa, x1 = 0.4022	0.612 ± 0.008
318.15 K, 100 kPa, x1 = 0.5005	0.507 ± 0.006
318.15 K, 100 kPa, x1 = 0.5989	0.44 ± 0.006
323.15 K, 100 kPa, x1 = 0.0988	0.83 ± 0.01
323.15 K, 100 kPa, x1 = 0.2004	0.734 ± 0.009
323.15 K, 100 kPa, x1 = 0.2963	0.66 ± 0.008
323.15 K, 100 kPa, x1 = 0.4022	0.578 ± 0.007
323.15 K, 100 kPa, x1 = 0.5005	0.481 ± 0.006
